Source: patent US10806794B2, “Protease inhibitors having enhanced features” (priority 2008, dated 2020)
Like-named read-outs stand apart in the source and are kept apart here.

Columns and labels:
[1] = molecular target: recombinant HIV-1 protease (Human immunodeficiency virus type 1 group M subtype B (isolate HXB2) (HIV-1), UniProt P04585); experiment: Enzyme inhibition of purified HIV-1 protease (SensoLyte 520 HIV-Protease Assay Kit); type: biochemical; details: read-out: IC50 ± SD
Experimental: Protease inhibitors (PI) are used to treat HIV infection by preventing viral assembly and maturation through the inhibition of HIV-1 protease activity. Biochemical assays were performed to evaluate the potential of PEG-PI conjugates to inhibit HIV-1 protease activity, relative to their respective PI parent molecules. Activity assays were performed at using the SensoLyte 520 HIV-Protease Assay Kit (Anaspec Inc., San Jose, Calif.) and recombinant HIV-1 protease. Protease activity was monitored by the formation of a fluorescent reporter product generated during HIV-1 protease-mediated digestion of a quenched, fluorimetric substrate containing the p17/p24 Pr^gag cleavage site.

[2] = test system: human liver microsomal proteins; experiment: Microsomal protein binding by equilibrium dialysis; type: in vitro ADME; details: human liver microsomes, 3 μM, fraction unbound
Experimental: PEGylated protease inhibitors were evaluated for their propensity to be bound by proteins in normal human plasma or in human liver microsome preparations using equilibrium dialysis analysis. For microsomal protein binding, test compound (final concentration=3 μM) was diluted into either buffer alone or buffer containing human liver microsomes. The protein-free and microsome-containing solutions were then added to either side of an equilibrium dialysis system and allowed to reach equilibrium at 37° C. The concentration of compound on both sides of the membrane at equilibrium was quantified by LC-MS/MS, and the fraction of compound that remains unbound (Fu) is calculated.

HIV-1RF = experiment: Anti-HIV cytoprotection in CEM-SS cells infected with HIV-1RF (XTT); type: cell-based; details: six days, XTT; read-out: CEM-SS/HIV-1RF EC50 ± SD
Experimental: (§1) To evaluate whether conjugated protease inhibitors retain the ability to protect against HIV-1 infection, CEM-SS cells infected with the RF strain of HIV-1 were treated with test compounds for six days, and then cell viability was monitored using the tetrazolium dye XTT. […] A value for Therapeutic Index (TI) was calculated as TC50/EC50.

CEM-SS cells = test system: CEM-SS cells
Experimental: as §1

human plasma proteins = experiment: Plasma protein binding by equilibrium dialysis, human plasma; type: in vitro ADME; details: human plasma, 5 μM, fraction unbound
Experimental: In assays to estimate binding of test compounds to plasma proteins, test compound solutions (5 μM) are prepared in buffer and species-specific plasma (final DMSO concentration 0.5%). The plasma-containing solution is added to one side of the membrane of an equilibrium dialysis system, and the plasma-free is added to the other side. Dialysis was allowed to reach equilibrium by incubation for two hours at 37° C. The concentration of compound on both sides of the membrane was measured using LC-MS/MS.

PBMCs [3] = experiment: PBMC cytotoxicity (XTT); type: cell-based, human; details: 7 days
Experimental: Mononuclear cells were isolated from fresh human peripheral blood cells by Ficoll-Hypaque density gradient by centrifugation at 600 g for 30 minutes. Banded peripheral blood mononuclear cells (PBMCs) were aspirated from the resulting interface and washed with phosphate buffered saline by low speed centrifugation. Cell viability was evaluated by Trypan Blue dye exclusion. […] Plates were incubated at 37° C., 5% CO2 for 7 days prior to cytotoxicity evaluation. XTT measurement for cytotoxicity.

PBMCs [4] = experiment: PBMC macromolecule synthesis (tritiated precursor incorporation); type: cell-based, human; details: for Thymidine Incorporation (PBMC) TC50: DNA synthesis; for Uridine Incorporation (PBMC) TC50: RNA synthesis; for Leucine Incorporation (PBMC) TC50: protein synthesis
Experimental: Cellular macromolecule synthesis was evaluated using tritiated precursor incorporation assays. PBMCs (5×10^4 cells/well) were cultured in the presence or absence of test compound for 7 days at 37 C, 5% CO2 in a 96-well microtiter plate. On day 6 of the incubation, 1 uCi of [methyl-3H]-thymidine for DNA synthesis, [5-3H]-uridine for RNA synthesis, or [3,4,5-3H]-leucine for protein synthesis was added to compound-treated cells, and the plate was further incubated for 16 hours. The cells were transferred to a glass fiber filtermat using an Inotech cell harvester. The filtermats were washed with distilled water then sealed in a bag with scintillation fluid. Incorporated radioactivity was measured using a Wallac scintillation counter.

CYP3A4 = CYP3A4 (Homo sapiens (Human), UniProt P08684); experiment: CYP450 inhibition in human liver microsomes: CYP3A4;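 also: incubation at 37 °C started by adding 1 mM NADPH, with formation of the probe metabolite measured via LC-MS/MS or fluorescent detection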
Caco-2 cells = experiment: Bi-directional permeability in Caco-2 monolayers; details: for Efflux ratio (B→A/A→B): Caco-2 monolayers; for A→B, ×10^−6: human, Caco-2
Experimental: Absorption properties of various compounds were measured using bi-directional permeability assays in Caco-2 cells. […] The efflux ratio is calculated as the ratio of the Papp(B→A)/Papp(A→B).

human hepatocytes = experiment: Metabolic stability in cryopreserved human hepatocytes; details: human hepatocytes, 3 uM, incubated up to one hour
Experimental: Metabolism of PI conjugates was investigated by monitoring the levels of unmetabolized parent compound following incubation with cryopreserved human or monkey hepatocytes. The use of whole hepatocytes rather than microsomes requires that the drugs cross the cell membrane to interact with intracellularly-localized metabolic enzymes, and thus provides the most relevant in vitro system for understanding overall metabolic stability of these compounds.
Test compounds (0.1 μM or 3 μM, as indicated) are incubated with cryopreserved human hepatocytes at a cell density of 0.5×10^6 viable cells/mL. […] Duplicate samples (50 μL) are removed from the incubation mixture at various timepoints up to four hours (for 0.1 μM test compound concentration), or one or two hours (for 3 μM test compound concentration), and the reaction is quenched by the addition of methanol containing internal standard (100 μL). The samples are centrifuged (2500 rpm at 4° C. for 20 min), and the supernatants at each time point pooled for cassette analysis by LC-MS/MS.

[5] = read-out: CYP3A4 IC50 Midazolam, probe substrate midazolam
[6] = read-out: CYP3A4 IC50 Testosterone, probe substrate testosterone

Sequence of CYP3A4 (P08684 whole entry): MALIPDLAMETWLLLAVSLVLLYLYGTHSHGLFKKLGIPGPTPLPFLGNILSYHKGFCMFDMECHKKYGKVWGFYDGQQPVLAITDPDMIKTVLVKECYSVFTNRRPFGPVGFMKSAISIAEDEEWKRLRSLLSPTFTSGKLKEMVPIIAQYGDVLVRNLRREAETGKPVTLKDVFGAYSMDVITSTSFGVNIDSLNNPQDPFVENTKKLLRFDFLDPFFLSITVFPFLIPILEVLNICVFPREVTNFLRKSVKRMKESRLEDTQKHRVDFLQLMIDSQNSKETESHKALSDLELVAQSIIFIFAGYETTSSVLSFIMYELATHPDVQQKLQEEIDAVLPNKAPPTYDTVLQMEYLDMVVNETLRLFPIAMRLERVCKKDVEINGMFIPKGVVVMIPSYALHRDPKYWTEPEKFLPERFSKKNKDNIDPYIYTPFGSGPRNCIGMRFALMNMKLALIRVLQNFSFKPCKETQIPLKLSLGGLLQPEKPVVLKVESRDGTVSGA

CCC(C1=C(O)CC(CCCNC(=O)OC)(CCc2ccccc2)OC1=O)c1cccc(NS(=O)(=O)c2ccc(C(F)(F)F)cn2)c1 (mixture of isomers) [mPEG0-OCO—NH-Tipranavir]
IC50 [1]: 0.292 nM
Microsomal Protein Binding Fu ± SD [2]: 0.887 ± 0.0749
EC50 (HIV-1RF): 290 nM
CEM-SS TC50 ± SD (CEM-SS cells; absence of viral infection): 54300 nM
Plasma Protein Binding Fu ± SD (human plasma proteins): 0.0105 ± 0.00848

CCC(C1=C(O)CC(CCCNC(=O)OCCOC)(CCc2ccccc2)OC1=O)c1cccc(NS(=O)(=O)c2ccc(C(F)(F)F)cn2)c1 (mixture of isomers) [mPEG1-OCO—NH-Tipranavir]
IC50 [1]: 0.188 nM
Microsomal Protein Binding Fu ± SD [2]: 0.85 ± 0.184
EC50 (HIV-1RF): 120 nM
CEM-SS TC50 ± SD (CEM-SS cells; absence of viral infection): 49500 nM
Plasma Protein Binding Fu ± SD (human plasma proteins): 0.0145 ± 0.000403

CCC(C1=C(O)CC(CCCNC(=O)OCCOCCOCCOC)(CCc2ccccc2)OC1=O)c1cccc(NS(=O)(=O)c2ccc(C(F)(F)F)cn2)c1 (mixture of isomers) [mPEG3-OCO—NH-Tipranavir]
IC50 [1]: 0.617 nM
Microsomal Protein Binding Fu ± SD [2]: 0.816 ± 0.0104
EC50 (HIV-1RF): 870 nM
CEM-SS TC50 ± SD (CEM-SS cells; absence of viral infection): 67600 nM
Plasma Protein Binding Fu ± SD (human plasma proteins): 0.0292 ± 0.000428

CCC(C1=C(O)CC(CCCNC(=O)OCCOCCOCCOCCOCCOC)(CCc2ccccc2)OC1=O)c1cccc(NS(=O)(=O)c2ccc(C(F)(F)F)cn2)c1 (mixture of isomers) [mPEG5-OCO—NH-Tipranavir]
IC50 [1]: 0.462 nM
Microsomal Protein Binding Fu ± SD [2]: highly unbound
EC50 (HIV-1RF): 1060 nM
CEM-SS TC50 ± SD (CEM-SS cells; absence of viral infection): 86100 nM
Plasma Protein Binding Fu ± SD (human plasma proteins): 0.0304 ± 0.000274

C[S+](C)[O-] [DMSO, reference compound]
XTT (PBMC) TC50 (PBMCs [3]): >2.0%
Thymidine Incorporation (PBMC) TC50 (PBMCs [4]): >2.0%
Uridine Incorporation (PBMC) TC50 (PBMCs [4]): 0.06%
Leucine Incorporation (PBMC) TC50 (PBMCs [4]): 0.19%

COCCOCCOCCOCCOCCOC(=O)N[C@@H](C(=O)NC(Cc1ccccc1)[C@@H](O)CN(Cc1ccc(-c2ccccn2)cc1)NC(=O)[C@H](NC(=O)OCCOCCOCCOCCOCCOC)C(C)(C)C)C(C)(C)C (some centres unmarked) [di-mPEG5-Atazanavir]
IC50 [1]: 17.3 nM
Microsomal Protein Binding Fu ± SD [2]: highly unbound
EC50 (HIV-1RF): 1110 nM
CEM-SS TC50 ± SD (CEM-SS cells): >200000 nM
IC50 (CYP3A4; [5]): > 50000 nM
IC50 (CYP3A4; [6]): > 50000 nM
Efflux ratio (B→A/A→B) (Caco-2 cells): >10.8
A→B, ×10^−6 (Caco-2 cells): 0.06 cm/s
CLint ± SEM (human hepatocytes): 0.824 ± 0.950 μL/min/10^6 cells
Plasma Protein Binding Fu ± SD (human plasma proteins): 0.537 ± 0.0412

COCCOCCOCCOCCOCCOCCOC(=O)N[C@@H](C(=O)NC(Cc1ccccc1)[C@@H](O)CN(Cc1ccc(-c2ccccn2)cc1)NC(=O)[C@H](NC(=O)OCCOCCOCCOCCOCCOCCOC)C(C)(C)C)C(C)(C)C (some centres unmarked) [di-mPEG6-Atazanavir]
IC50 [1]: 15.6 nM
Microsomal Protein Binding Fu ± SD [2]: highly unbound
EC50 (HIV-1RF): 2540 nM
CEM-SS TC50 ± SD (CEM-SS cells): 158600 nM
Plasma Protein Binding Fu ± SD (human plasma proteins): 0.868 ± 0.0163

COCCOCCOCCOCCOCCOCCOCCOC(=O)N[C@@H](C(=O)NC(Cc1ccccc1)[C@@H](O)CN(Cc1ccc(-c2ccccn2)cc1)NC(=O)[C@H](NC(=O)OCCOCCOCCOCCOCCOCCOCCOC)C(C)(C)C)C(C)(C)C (some centres unmarked) [di-mPEG7-Atazanavir]
IC50 [1]: 10.9 nM
Microsomal Protein Binding Fu ± SD [2]: highly unbound
EC50 (HIV-1RF): 8350 nM
CEM-SS TC50 ± SD (CEM-SS cells): >200000 nM
IC50 (CYP3A4; [5]): > 50000 nM
IC50 (CYP3A4; [6]): > 50000 nM
Efflux ratio (B→A/A→B) (Caco-2 cells): >3.6
A→B, ×10^−6 (Caco-2 cells): 0.06 cm/s
Plasma Protein Binding Fu ± SD (human plasma proteins): highly unbound

CCCC1(CCc2ccccc2)CC(O)=C(C(CC)c2cccc(N(CCOCCOCCOC)S(=O)(=O)c3ccc(C(F)(F)F)cn3)c2)C(=O)O1 (centres unmarked) [mPEG3-amide-Tipranavir]
Microsomal Protein Binding Fu ± SD [2]: 0.73 ± 0.0153
EC50 (HIV-1RF): 80 nM
CEM-SS TC50 ± SD (CEM-SS cells): 1300 nM
IC50 (CYP3A4; [5]): 2500 nM
IC50 (CYP3A4; [6]): ~2100 nM
CLint ± SEM (human hepatocytes): 1.66 ± 1.24 μL/min/10^6 cells
Plasma Protein Binding Fu ± SD (human plasma proteins): 0.014 ± 0.00166

CCCC1(CCc2ccccc2)CC(O)=C(C(CC)c2cccc(N(CCOCCOCCOCCOCCOC)S(=O)(=O)c3ccc(C(F)(F)F)cn3)c2)C(=O)O1 (centres unmarked) [mPEG5-amide-Tipranavir]
Microsomal Protein Binding Fu ± SD [2]: highly unbound
EC50 (HIV-1RF): > 200000 nM
CEM-SS TC50 ± SD (CEM-SS cells): 12800 nM
IC50 (CYP3A4; [5]): 1700 nM
IC50 (CYP3A4; [6]): 2800 nM
CLint ± SEM (human hepatocytes): 3.62 ± 0.527 μL/min/10^6 cells
Plasma Protein Binding Fu ± SD (human plasma proteins): 0.0308 ± 0.00399

CCC[C@@]1(CCc2ccccc2)CC(O)=C([C@H](CC)c2cccc(N(CCOCCOCCOCCOCCOCCOCCOC)S(=O)(=O)c3ccc(C(F)(F)F)cn3)c2)C(=O)O1 [mPEG7-amide-Tipranavir]
IC50 [1]: 12.2 nM
Microsomal Protein Binding Fu ± SD [2]: highly unbound
EC50 (HIV-1RF): > 200000 nM
CEM-SS TC50 ± SD (CEM-SS cells): 14500 nM
IC50 (CYP3A4; [5]): 2600 nM
IC50 (CYP3A4; [6]): ~4000 nM
CLint ± SEM (human hepatocytes): 0.162 ± 0.343 μL/min/10^6 cells
Plasma Protein Binding Fu ± SD (human plasma proteins): 0.029 ± 0.00436

Triton X-100 [reference compound]
XTT (PBMC) TC50 (PBMCs [3]): 0.003%
Thymidine Incorporation (PBMC) TC50 (PBMCs [4]): 0.002%
Uridine Incorporation (PBMC) TC50 (PBMCs [4]): 0.0009%
Leucine Incorporation (PBMC) TC50 (PBMCs [4]): 0.0006%
